Results: US9186381B2, “Medicament for liver regeneration and for treatment of liver failure” (Helmholtz Zentrum Fuer Infektionsforschung GmbH, priority 2011, dated 2015)

The compounds below were run against T1, purified MKK4 protein (Homo sapiens, UniProt P45985) (assay: in vitro MKK4 kinase assay, phosphorylation of substrate JNK1a1 with 32P-ATP). Conditions: positive control, remaining activity.
T1 construct: made in house
T1 sequence (P45985 1-399): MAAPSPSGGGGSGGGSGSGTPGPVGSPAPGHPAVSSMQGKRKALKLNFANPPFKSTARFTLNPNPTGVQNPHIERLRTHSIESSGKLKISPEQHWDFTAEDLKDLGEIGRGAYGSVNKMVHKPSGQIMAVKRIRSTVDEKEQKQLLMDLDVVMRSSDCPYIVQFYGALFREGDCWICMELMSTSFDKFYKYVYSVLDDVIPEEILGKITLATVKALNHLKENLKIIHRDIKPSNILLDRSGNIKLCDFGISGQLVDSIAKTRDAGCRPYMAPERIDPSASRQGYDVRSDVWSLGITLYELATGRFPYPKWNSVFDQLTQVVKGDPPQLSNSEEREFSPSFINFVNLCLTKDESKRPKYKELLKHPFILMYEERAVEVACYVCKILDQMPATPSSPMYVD
Assay type: biochemical
Experimental: The inhibitory effect of compounds against MKK4 was analysed in an in vitro assay using purified MKK4 protein, e.g. obtained from a cell line that was genetically manipulated to over-express MKK4 from an expression cassette containing the nucleotide sequence SEQ ID NO: 1204 as a coding sequence and affinity purification using e.g. an antibody directed against MKK4 protein.
In the assay, purified active MKK4 protein was incubated with its substrate JNK1a1 and ^32P-labelled gATP (5 μCi, approx. 10 μM), without additional active compound, with the small inhibitory compound, or with Genistein as a positive control. For the assay, kinase assay buffer (20 mM HEPES pH 7.5; 10 mM MgCl2; 1 mg/ml BSA; 1 mM Na3VO4; 1 mM DTT) was used. An inhibitory effect of the small inhibitory compound (final concentration 50 μM) was detected as a reduction of the phosphorylation activity of MKK4 protein on its substrate JNK1a1 by measuring the amount of radioactive (^32P) phosphate in JNK1a1. Phosphorylation of JNK1a1 was measured in the presence of 2 ml scintillation cocktail per sample by using a scintillation counter (Wallac, Liquid Scintillation Counter). In this assay, Genistein gave an inhibition to approx. 80% activity compared to the assay without additional active compound.

Compound | inhibition to % activity compared to the assay without additional active compound
O=c1c(-c2ccc(O)cc2)coc2cc(O)cc(O)c12 [Genistein] | approx. 80%

Same assay, conditions: small inhibitory compound final concentration 50 μM, 32P-gATP approx. 10 μM, value is remaining activity, read-out: Inhibition, relative activity of MKK4 compared to control (without additional compound) (%)

remaining activity at 50 µM | Compound
66.2% | O=C(O)c1ccc2c3c(ncnc13)-c1ccccc1C2=O [BAS00368055, 7-oxobenzo[e]perimidine-4-carboxylic acid]
72.6% | Cn1c(O)c(C(=O)Nc2ccncc2)c(=O)c2ccccc21 [BAS00525963, 2-hydroxy-1-methyl-4-oxo-N-pyridin-4-ylquinoline-3-carboxamide]
79% | O=[N+]([O-])c1cccc(/C=N/c2ccc3[nH]ncc3c2)c1O [BAS00697444, 2-(1H-indazol-5-yliminomethyl)-6-nitrophenolate]
71.1% | COc1cc([N+](=O)[O-])cc(/C=N/c2ccc3[nH]ncc3c2)c1O [BAS00697462, 2-(1H-indazol-5-yliminomethyl)-6-methoxy-4-nitrophenolate]
58.4% | COc1nc(Oc2cccc(/C=C(\C#N)c3nn(CCO)c(N)c3C#N)c2)nc(N2CCCCC2)n1 [BAS00896568, 5-amino-3-[(Z)-1-cyano-2-[3-[(4-methoxy-6-piperidin-1-yl-1,3,5-triazin-2-yl)oxy]phenyl]ethenyl]-1-(2-hydroxyethyl)pyrazole-4-carbonitrile]
47.8% | Cc1n[nH]c(C)c1CCc1cc(O)n2ncc(C(=O)Nc3ccccc3)c2n1 [SYN22174524, 5-[2-(3,5-dimethyl-1H-pyrazol-4-yl)ethyl]-7-oxo-N-phenyl-1H-pyrazolo[1,5-a]pyrimidine-3-carboxamide]
41.5% | Cc1n[nH]c(C)c1CCc1cc(=O)n2ncc(-c3ccc(F)cc3)c2[nH]1 [SYN22174787, 5-[2-(3,5-dimethyl-1H-pyrazol-4-yl)ethyl]-3-(4-fluorophenyl)-1H-pyrazolo[1,5-a]pyrimidin-7-one]
55.5% | Cc1ccc(-c2cnn3c(=O)cc(CCc4c(C)n[nH]c4C)[nH]c23)cc1 [SYN22175977, 5-[2-(3,5-dimethyl-1H-pyrazol-4-yl)ethyl]-3-(4-methylphenyl)-1H-pyrazolo[1,5-a]pyrimidin-7-one]
59.1% | COCc1nn2c(=O)cc(CCc3c(C)n[nH]c3C)[nH]c2c1-c1ccc(Cl)cc1 [SYN22176267, 3-(4-chlorophenyl)-5-[2-(3,5-dimethyl-1H-pyrazol-4-yl)ethyl]-2-(methoxymethyl)-1H-pyrazolo[1,5-a]pyrimidin-7-one]
49.9% | COCc1nn2c(=O)cc(CCc3c(C)n[nH]c3C)[nH]c2c1-c1ccc(C)cc1 [SYN22176367, 5-[2-(3,5-dimethyl-1H-pyrazol-4-yl)ethyl]-2-(methoxymethyl)-3-(4-methylphenyl)-1H-pyrazolo[1,5-a]pyrimidin-7-one]
54.9% | COc1cccc(-c2nn3c(=O)cc(CCc4c(C)n[nH]c4C)[nH]c3c2C)c1 [SYN22176842, 5-[2-(3,5-dimethyl-1H-pyrazol-4-yl)ethyl]-2-(3-methoxyphenyl)-3-methyl-pyrazolo[5,1-b]pyrimidin-7-ol]
58.2% | COc1ccccc1-c1nn2c(=O)cc(CCc3c(C)n[nH]c3C)[nH]c2c1C [SYN22176990, 5-[2-(3,5-dimethyl-1H-pyrazol-4-yl)ethyl]-2-(2-methoxyphenyl)-3-methyl-pyrazolo[5,1-b]pyrimidin-7-ol]
56.3% | Cc1n[nH]c(C)c1CCc1cc(=O)n2nc(C)c(-c3ccc(Cl)cc3)c2[nH]1 [SYN22177890, 3-(4-chlorophenyl)-5-[2-(3,5-dimethyl-1H-pyrazol-4-yl)ethyl]-2-methyl-1H-pyrazolo[1,5-a]pyrimidin-7-one]
54.2% | Cc1ccc(NC(=O)c2cccc(N(C)C)c2)cc1NC(=O)c1ccc(O)cc1 [ZM 336372, 3-(Dimethylamino)-N-[3-[(4-hydroxybenzoyl)-amino]-4-methylphenyl]benzamide, reference compound]

What follows are compounds tested on MKK4 in the liver (assay: inhibition of MKK4 in vivo by small inhibitors administered to mice). Conditions: dosage efficient for in vivo inactivation of MKK4.
Experimental: In the alternative to inhibition of MKK4 activity in liver tissue by inhibitory RNA, SP600125, myricitine, Genistein, or PD98059 were used for inactivating MKK4 in the liver. Generally, SP600125, myricitine, Genistein, or PD98059 were administered to mice at a dosage efficient for in vivo inactivation of MKK4. Preferably, the dosage was efficient to inactivate at least 80%, more preferably at least 90 or 95% of mean in vivo MKK4 activity.

Compound | liver regeneration | proliferation | protection against induced apoptosis
O=c1c(-c2ccc(O)cc2)coc2cc(O)cc(O)c12 [Genistein] | significant increase in liver regeneration | increase in proliferation | protection against induced apoptosis
COc1cccc(-c2cc(=O)c3ccccc3o2)c1N [PD98059] | significant increase in liver regeneration | increase in proliferation | protection against induced apoptosis
O=c1c(O)c(-c2cc(O)c(O)c(O)c2)oc2cc(O)cc(O)c12 [myricitine] | significant increase in liver regeneration | increase in proliferation | protection against induced apoptosis
